From paper PMC11795093, “Investigation of the threonine metabolism of Echinococcus multilocularis: The threonine dehydrogenase as a potential drug target in alveolar echinococcosis” (International Journal for Parasitology: Drugs and Drug …, 2025)

B1: recEmTDH (Echinococcus multilocularis) (protein)
chain: HHGTGACSHQTPKILITGGLGQLGMPLARVFRSKYGQDSVILTDIKKPDPAVKDVGHFEFADIMDVDGLRELVVEHRIDWLIHFSALLSAVGEQNTPLAMQVNIGGLHNIFNVAREFNLRLFIPSTIGAFGPNSPRNPTPDDCIQQPNTIYGVSKVHAELLGMYLNHRYGLDFRSLRLPGVISADVEPGGGTTDYAIHIFKYAMRGEPYPCFLSQNTRLPMIWIDDVIRAMVEVMECPREKLKRCVYNLAGISFTPKEINEAMLRGMHRHGLAKQLKTYELKYDVDFRQKIADSWPEVLDDANARRDWGWRHEVDIDGMVDKMFEYLKAHST
notes: E. coli BL21; 979 bp insert from metacestode vesicle cDNA

What was measured:
recMmTDH [1] = target: T1, recMmTDH (Mus musculus, UniProt Q8K3F7); experiment: NADH formation, absorbance at […] nm, relative to DMSO control; assay type: biochemical; details: 20 μM compound; 2 mM L-Thr, 3 mM NAD+; pH 8.4; 37 °C
T1 construct: gene Tdh; predicted mitochondrial transfer peptide removed; E. coli BL21; synthetic gene, 991 bp insert

recEmTDH = target: T2, recEmTDH (Echinococcus multilocularis, UniProt A0A068Y017); experiment: as above; assay type: biochemical; details: read-out: residual activity at 20 μM
T2 construct: gene EmuJ_000511900; E. coli BL21; 979 bp insert from metacestode vesicle cDNA
T2 sequence (A0A068Y017 31-362): B1 chain

recMmTDH [2] = target: T1, recMmTDH; experiment: NADH formation, absorbance at […] nm; assay type: biochemical; details: 0-16 mM L-Thr, 10 mM NAD+; pH 8.4; 37 °C
purified protein [3] = substrate: NC(=O)c1ccc[n+]([C@@H]2O[C@H](COP(=O)(O)OP(=O)(O)OC[C@H]3O[C@@H](n4cnc5c(N)ncnc54)[C@H](O)[C@@H]3O)[C@@H](O)[C@H]2O)c1; experiment: purified protein; assay type: biochemical, Echinococcus multilocularis; details: 16 mM L-Thr, 80 mM Tris-HCl pH 8.4, 37 °C, varied: cofactor
purified protein [4] = substrate: C[C@@H](O)[C@H](N)C(=O)O; experiment: purified protein; assay type: biochemical, Echinococcus multilocularis; details: 2 mM NAD+, 80 mM Tris-HCl pH 8.4, 37 °C

T1 sequence (Q8K3F7 46-373): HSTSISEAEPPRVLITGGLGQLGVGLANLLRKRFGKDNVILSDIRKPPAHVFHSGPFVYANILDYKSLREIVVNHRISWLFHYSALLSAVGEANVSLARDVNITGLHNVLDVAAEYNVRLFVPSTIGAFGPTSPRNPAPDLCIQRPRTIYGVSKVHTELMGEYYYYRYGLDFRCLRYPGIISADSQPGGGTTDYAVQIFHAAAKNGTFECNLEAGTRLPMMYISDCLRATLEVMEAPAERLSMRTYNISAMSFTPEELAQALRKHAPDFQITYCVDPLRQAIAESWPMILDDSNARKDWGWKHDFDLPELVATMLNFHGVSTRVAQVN

Molecule	residual activity at 20 μM (recMmTDH [1])	remaining activity at 20 µM (recEmTDH) [%]	further results
O=C(O)c1ccc2c(=O)n(-c3cccc(C(F)(F)F)c3)c(=S)[nH]c2c1 [QC7]	All tested compounds, except QC4, inhibited recMmTDH activity		
C[n+]1cc2c3c(ccc2c2ccc4cc5c(cc4c21)OCO5)OCO3 [sanguinarine]	All tested compounds, except QC4, inhibited recMmTDH activity	64 ± 4	
O=c1c(O)c(-c2cc(O)c(O)c(O)c2)oc2cc(O)cc(O)c12 [myricetin]	All tested compounds, except QC4, inhibited recMmTDH activity	74.8 ± 1.7	
CCN(CC)C(=S)SSC(=S)N(CC)CC [disulfiram]	All tested compounds, except QC4, inhibited recMmTDH activity	41.2 ± 0.8	
O=C(NCCCN1CCCC1=O)c1ccc2c(=O)n(-c3cccc(C(F)(F)F)c3)c(=S)[nH]c2c1 [QC5]	All tested compounds, except QC4, inhibited recMmTDH activity		
CN(Cc1ccccc1)C(=O)c1ccc2c(=O)n(-c3cccc(C(F)(F)F)c3)c(=S)[nH]c2c1 [QC6]	All tested compounds, except QC4, inhibited recMmTDH activity		
O=c1c(O)c(-c2ccc(O)c(O)c2)oc2cc(O)cc(O)c12 [quercetin]	All tested compounds, except QC4, inhibited recMmTDH activity	85.5 ± 2.8	
O=C(NCc1ccccc1)c1ccc2c(=O)n(-c3cccc(C(F)(F)F)c3)c(=S)[nH]c2c1 [QC1]	All tested compounds, except QC4, inhibited recMmTDH activity		
C[C@@H](O)[C@H](N)C(=O)O [L-Thr]			NADH formation, absorbance at 340 nm (recMmTDH [2]): we recombinantly expressed MmTDH (S5 File) and this protein was also enzymatically active
COc1ccccc1CNC(=O)c1ccc2c(=O)n(-c3cccc(C(F)(F)F)c3)c(=S)[nH]c2c1 [QC3]	All tested compounds, except QC4, inhibited recMmTDH activity		
COc1ccc(NC(=O)c2ccc3c(=O)n(-c4cc(C(F)(F)F)ccc4Cl)c(=S)[nH]c3c2)cc1OC [QC2]	All tested compounds, except QC4, inhibited recMmTDH activity	81.3 ± 1.8	
B1			Km (purified protein [3]): 0.8 ± 0.01 mM; Km (purified protein [4]): 8.8 ± 0.05 mM
